Experimental findings from EP4644383A1 (Jiangsu Yahong Meditech Co., Ltd., priority 2022, dated 2024) are described below.

One assay addresses T1, FGFR1 (Homo sapiens, UniProt P11362).
T1 construct: cytoplasmic domain [398-822 (terminal) amino acids]; purchased Carna 08-133
In words: FGFR1 kinase activity inhibition assay (LanthaScreen TR-FRET). In kind it is biochemical. As to conditions: FGFR1 kinase, TR-FRET; read-out: IC50 (nM) FGFR1. In short, it runs like this: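 Emission ratio 520 nm/495 nm by TR-FRET after stopping reaction with 10 mM EDTA and 60 min incubation at 22°C. Inhibition normalized between no-enzyme (min) and DMSO (max) controls, then fitted to a four-parameter curve (Top, Bottom, HillSlope).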

The next assay addresses T2, FGFR3 (Homo sapiens, UniProt P22607).
T2 construct: FGFR3's cytoplasmic domain [436-806 (terminal) amino acids]; purchased Carna 08-135
In words: FGFR3 kinase activity inhibition assay (LanthaScreen TR-FRET). In kind it is biochemical. As to conditions: for IC50: FGFR3 kinase, TR-FRET, read-out: IC50 (nM) FGFR3; for Selectivity (X) FGFR1/FGFR3: ratio of IC50 FGFR1/FGFR3, selectivity towards FGFR3. In short, it runs like this:
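Read-out is TR-FRET, with the 520 nm/495 nm emission ratio normalised to DMSO (max) and enzyme-free (min) controls. Enzyme was the FGFR3 cytoplasmic domain, residues 436-806. EDTA (10 mM) stopped the reaction, followed by 60 min at 22 °C before reading.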
(In general: Time-resolved FRET reads energy transfer from a long-lived donor to a nearby acceptor.)

T2 sequence (P22607 436-806): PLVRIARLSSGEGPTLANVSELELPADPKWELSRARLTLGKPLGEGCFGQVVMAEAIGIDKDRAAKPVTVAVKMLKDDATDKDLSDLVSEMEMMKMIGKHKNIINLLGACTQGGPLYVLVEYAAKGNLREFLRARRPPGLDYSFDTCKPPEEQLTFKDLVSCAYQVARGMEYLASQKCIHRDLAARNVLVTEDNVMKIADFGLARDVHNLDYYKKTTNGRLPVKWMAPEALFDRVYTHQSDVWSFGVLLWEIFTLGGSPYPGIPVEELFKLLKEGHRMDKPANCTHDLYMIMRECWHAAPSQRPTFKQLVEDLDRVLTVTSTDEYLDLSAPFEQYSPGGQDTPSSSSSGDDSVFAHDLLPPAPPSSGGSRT
T1 sequence (P11362 398-822): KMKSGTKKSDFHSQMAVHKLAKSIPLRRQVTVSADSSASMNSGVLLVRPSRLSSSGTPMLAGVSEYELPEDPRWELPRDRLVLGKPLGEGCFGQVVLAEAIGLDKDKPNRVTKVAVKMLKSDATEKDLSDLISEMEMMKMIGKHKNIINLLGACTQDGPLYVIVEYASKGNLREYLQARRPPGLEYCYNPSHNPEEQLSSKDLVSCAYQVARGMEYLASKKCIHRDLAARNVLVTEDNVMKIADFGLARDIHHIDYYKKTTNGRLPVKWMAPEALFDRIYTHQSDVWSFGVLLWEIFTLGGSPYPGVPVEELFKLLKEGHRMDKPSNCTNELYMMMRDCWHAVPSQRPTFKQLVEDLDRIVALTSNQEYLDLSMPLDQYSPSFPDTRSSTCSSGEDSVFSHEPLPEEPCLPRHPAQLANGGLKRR

For `CC(Oc1ccc2[nH]nc(-c3cnn(C4CN(C(=O)C(C)(C)N)C4)c3)c2c1)c1c(C(F)F)ccc2ncccc12` (stereo not drawn) [Example 208, 2-amino-1-(3-(4-(5-(1-(6-(difluoromethyl)quinoline-5-yl)ethoxy)-1H-indazol-3-yl)-1H-pyrazol-1-yl)azetidin-1-yl)-2-methylpropan-1-one], the IC50 (commonly the concentration needed to halve the response being measured) on FGFR1 was 10 to 100 nM; at FGFR3, less than 1 nM. The “Selectivity (X) FGFR1/FGFR3” value on FGFR3 is recorded as “B (B represents 20 ≤ multiple X<50)”.

Consider `CC(Oc1ccc2[nH]nc(-c3cnn(C4CN(C(=O)C(C)(C)O)C4)c3)c2c1)c1cc(Cl)cc2nccnc12` (stereo not drawn) [Example 209, 1-(3-(4-(5-(1-(7-chloroquinoxalin-5-yl)ethoxy)-1H-indazol-3-yl)-1H-pyrazol-1-yl)azetidin-1-yl)-2-hydroxy-2-methylpropan-1-one], for which, at FGFR1, the IC50 lay in the range of 10 to 100 nM. Moreover, at FGFR3, the IC50 was less than 1 nM and the “Selectivity (X) FGFR1/FGFR3” value is “B (B represents 20 ≤ multiple X<50)”.

For the compound `CC(Oc1ccc2[nH]nc(-c3cnn(C4CN(C(=O)C(C)(C)N)C4)c3)c2c1)c1cc(Cl)cc2nccnc12` (stereo not drawn) [Example 210, 2-amino-1-(3-(4-(5-(1-(7-chloroquinoxalin-5-yl)ethoxy)-1H-indazol-3-yl)-1-pyrazol-1-yl)azetidin-1-yl)-2-methylpropan-1-one], the IC50 on FGFR1 lay in the range of 1 to 10 nM. Also, at FGFR3, the IC50 was less than 1 nM and the “Selectivity (X) FGFR1/FGFR3” value is given as “A (A represents 1 ≤ multiple X<20)”.

With `CC(Oc1ccc2[nH]nc(-c3cnn(C4CN(C(=O)C(C)(C)N)C4)c3)c2c1)c1cc(Cl)cc2ncccc12` (stereo not drawn) [Example 211, 2-amino-1-(3-(4-(5-(1-(7-chloroquinolin-5-yl)ethoxy)-1H-indazol-3-yl)-1-pyrazol-1-yl)azetidin-1-yl)-2-methylpropan-1-one], the concentration for half-maximal inhibition (IC50) at FGFR1 was 10 to 100 nM; at FGFR3, less than 1 nM. Also, at FGFR3, the “Selectivity (X) FGFR1/FGFR3” value is “B (B represents 20 ≤ multiple X<50)”.

Turning to `CC(Oc1ccc2[nH]nc(-c3cnn(C4CN(CC(N)=O)C4)c3)c2c1)c1cccc2nccnc12` (stereo not drawn) [Example 214, 2-(3-(4-(5-(1-(quinoxalin-5-yl)ethoxy)-1H-indazol-3-yl)-1H-pyrazol-1-yl)azetidin-1-yl)acetamide], the IC50 on FGFR1 lay within 10 to 100 nM. For the same compound, on FGFR3, the IC50 was less than 1 nM and the “Selectivity (X) FGFR1/FGFR3” value is given as “B (B represents 20 ≤ multiple X<50)”.

On to `Cc1cc(C(C)Oc2ccc3[nH]nc(-c4cnn(C5CN(C(=O)C(C)(C)N)C5)c4)c3c2)c2cccnc2c1` (stereo not drawn) [Example 215, 2-amino-2-methyl-1-(3-(4-(5-(1-(7-methylquinolin-5-yl)ethoxy)-1H-indazol-3-yl)-1H-pyrazol-1-yl)azetidin-1-yl)propan-1-one], for which the figures for the IC50 on FGFR1 and on FGFR3 were 10 to 100 nM and less than 1 nM, respectively. Also, the “Selectivity (X) FGFR1/FGFR3” value at FGFR3 was “B (B represents 20 ≤ multiple X<50)”.

With `CNC(C)(C)C(=O)N1CC(n2cc(-c3n[nH]c4ccc(OC(C)c5cccc6nccnc56)cc34)cn2)C1` (stereo not drawn) [Example 216, 2-methyl-2-(methylamino)-1-(3-(4-(5-(1-(quinoxalin-5-yl)ethoxy)-1H-indazol-3-yl)-1H-pyrazol-1-yl)azetidin-1-yl)propan-1-one], the IC50 on FGFR1 was 1 to 10 nM; on FGFR3 it was less than 1 nM. At FGFR3, the “Selectivity (X) FGFR1/FGFR3” value was “A (A represents 1 ≤ multiple X<20)”.

In the case of `Cc1ccc2ncccc2c1C(C)Oc1ccc2[nH]nc(-c3cnn(C4CN(C(=O)C(C)(C)O)C4)c3)c2c1` (stereo not drawn) [Example 217, 2-hydroxy-2-methyl-1-(3-(4-(5-(1-(6-methylquinolin-5-yl)ethoxy)-1H-indazol-3-yl)-1H-pyrazol-1-yl)azetidin-1-yl)propan-1-one], the IC50 at FGFR1 was 10 to 100 nM; on FGFR3 it was less than 1 nM. At FGFR3, the “Selectivity (X) FGFR1/FGFR3” value was “C (C represents 50 ≤ multiple X<100)”.

`CC(Oc1ccc2[nH]nc(-c3cnn(C4CN(C(=O)C5CC5)C4)c3)c2c1)c1cccc2nccnc12` (stereo not drawn) [Example 219, cyclopropyl(3-(4-(5-(1-(quinoxalin-5-yl)ethoxy)-1H-indazol-3-yl)-1H-pyrazol-1-yl)azetidin-1-yl)methanone]: the IC50 at FGFR1 is 10 to 100 nM; at FGFR3, less than 1 nM. Further, the “Selectivity (X) FGFR1/FGFR3” value at FGFR3 is “A (A represents 1 ≤ multiple X<20)”.

With `CC(Oc1ccc2[nH]nc(-c3cnn(CCCS(C)(=O)=O)c3)c2c1)c1cc(Cl)cc2nccnc12` (stereo not drawn) [Example 220, 7-chloro-5-(1-((3-(1-(3-(methylsulfonyl)propyl)-1H-pyrazol-4-yl)-1H-indazol-5-yl)oxy)ethyl)quinox aline], the IC50 at FGFR1 is 10 to 100 nM; on FGFR3, less than 1 nM. Moreover, on FGFR3, the “Selectivity (X) FGFR1/FGFR3” value is reported as “C (C represents 50 ≤ multiple X<100)”.

Consider `CC(Oc1ccc2[nH]nc(-c3cnn(C4CN(C(=O)C5(O)CCC5)C4)c3)c2c1)c1cccc2nccnc12` (stereo not drawn) [Example 221, (1-hydroxycyclobutyl)(3-(4-(5-(1-(quinoxalin-5-yl)ethoxy)-1H-indazol-3-yl)-1H-pyrazol-1-yl)azetidin-1-yl)methanone], for which the half-maximal inhibitory concentration (IC50) at FGFR1 was in the range of 1 to 10 nM. For the same compound, at FGFR3, the IC50 is less than 1 nM and the “Selectivity (X) FGFR1/FGFR3” value is given as “B (B represents 20 ≤ multiple X<50)”.

Turning to `CC(Oc1ccc2[nH]nc(-c3cnn(C4CN(C(=O)C5(O)CC5)C4)c3)c2c1)c1cc(Cl)cc2nccnc12` (stereo not drawn) [Example 222, (3-(4-(5-(1-(7-chloroquinoxalin-5-yl)ethoxy)-1H-indazol-3-yl)-1H-pyrazol-1-yl)azetidin-1-yl)(1-hydroxycyclopropyl)methanone], the IC50 at FGFR1 fell in the range of 10 to 100 nM. Moreover, on FGFR3, the IC50 was less than 1 nM and the “Selectivity (X) FGFR1/FGFR3” value is reported as “B (B represents 20 ≤ multiple X<50)”.

`Cc1cc2nccnc2c(C(C)Oc2cc(F)c3[nH]nc(-c4cnn(C)c4)c3c2)n1` (stereo not drawn) [Example 225, 5-(1-((7-fluoro-3-(1-methyl-1H-pyrazol-4-yl)-1H-indazol-5-yl)oxy)ethyl)-7-methylpyridino[3,4-b]pyrazine]: the IC50 at FGFR1 is 1 to 10 nM; on FGFR3, less than 1 nM. Also, the “Selectivity (X) FGFR1/FGFR3” value at FGFR3 is listed as “A (A represents 1 ≤ multiple X<20)”.

For `COc1cc(OC(C)c2cc(Cl)cc3nccnc23)cc2c(-c3cnn(C)c3)n[nH]c12` (stereo not drawn) [Example 226], the IC50 at FGFR1 was more than 100 nM. Moreover, on FGFR3, the IC50 lay within 1 to 10 nM and the “Selectivity (X) FGFR1/FGFR3” value is recorded as “B (B represents 20 ≤ multiple X<50)”.

Consider `CC(Oc1cc(F)c2[nH]nc(-c3cnn(C)c3)c2c1)c1cc(Cl)cc2nccnc12` (stereo not drawn) [Example 228, 7-chloro-5-(1-((7-fluoro-3-(1-methyl-1H-pyrazol-4-yl)-1H-indazol-5-yl)oxy)ethyl)qu inoxaline], for which the IC50 on FGFR1 lay in the range of 10 to 100 nM; on FGFR3 it was 1 to 10 nM. In addition, at FGFR3, the “Selectivity (X) FGFR1/FGFR3” value is “B (B represents 20 ≤ multiple X<50)”.

For `CC(Oc1ccc2[nH]nc(-c3cnn(C4CC(S(C)(=O)=O)C4)c3)c2c1)c1cccc2nccnc12` (stereo not drawn) [Example 229, 5-(1-((3-(1-(3-(methylsulfonyl)cyclobutyl)-1H-pyrazol-4-yl)-1H-indazol-5-yl)oxy)ethyl)quinoxaline], the half-maximal inhibitory concentration (IC50) at FGFR1 is 10 to 100 nM. Besides, at FGFR3, the IC50 was less than 1 nM and the “Selectivity (X) FGFR1/FGFR3” value is reported as “B (B represents 20 ≤ multiple X<50)”.

`CC(Oc1ccc2[nH]nc(-c3cnn(C)c3)c2c1)c1nc(C2CC2)cc2nccnc12` (stereo not drawn) [Example 230, 7-cyclopropyl-5-(1-((3-(1-methyl-1H-pyrazol-4-yl)-1H-indazol-5-yl)oxy)ethyl)pyri dino[3,4-b]pyrazine]: the IC50 on FGFR1 is 1 to 10 nM; on FGFR3, less than 1 nM. Also, the “Selectivity (X) FGFR1/FGFR3” value at FGFR3 is on record as “A (A represents 1 ≤ multiple X<20)”.

Consider `CC(Oc1ccc2[nH]nc(-c3cnn(C)c3)c2c1)c1c(C(F)F)ccc2nccnc12` (stereo not drawn) [Example 232], for which the IC50 on FGFR1 was 1 to 10 nM; at FGFR3, less than 1 nM. For the same compound, on FGFR3, the “Selectivity (X) FGFR1/FGFR3” value is “A (A represents 1 ≤ multiple X<20)”.

On to `CC(C)c1cc2nccnc2c(C(C)Oc2ccc3[nH]nc(-c4cnn(C)c4)c3c2)n1` (stereo not drawn) [Example 237], for which the IC50 at FGFR1 lay within 10 to 100 nM; on FGFR3, 1 to 10 nM. Moreover, on FGFR3, the “Selectivity (X) FGFR1/FGFR3” value is recorded as “B (B represents 20 ≤ multiple X<50)”.

Regarding `CC(Oc1ccc2[nH]nc(-c3cnn(C4CN(C(=O)C5CC5)C4)c3)c2c1)c1cc(Cl)cc2nccnc12` (stereo not drawn) [Example 238, (3-(4-(5-(1-(7-chloroquinoxalin-5-yl)ethoxy)-1H-indazol-3-yl)-1H-pyrazol-1-yl)azetidin-1-yl)(cyclopropyl) methanone], the 50% inhibitory concentration (IC50) at FGFR1 fell in the range of 10 to 100 nM. Also, on FGFR3, the IC50 was less than 1 nM and the “Selectivity (X) FGFR1/FGFR3” value was “B (B represents 20 ≤ multiple X<50)”.

Regarding `CC(Oc1ccc2[nH]nc(-c3cnn(C4COC4)c3)c2c1)c1cc(Cl)cc2nccnc12` (stereo not drawn) [Example 239], the IC50 at FGFR1 fell in the range of 10 to 100 nM. Also, at FGFR3, the IC50 was 1 to 10 nM and the “Selectivity (X) FGFR1/FGFR3” value is recorded as “C (C represents 50 ≤ multiple X<100)”.

As to `CC(Oc1ccc2[nH]nc(-c3cnn(C4CN(C=O)C4)c3)c2c1)c1cc(Cl)cc2nccnc12` (stereo not drawn) [Example 240, 3-(4-(5-(1-(7-chloroquinoxalin-5-yl)ethoxy)-1H-indazol-3-yl)-1H-pyrazol-1-yl)azetidine-1-carbaldehyde], at FGFR1, the IC50 lay within 10 to 100 nM. Besides, at FGFR3, the IC50 is less than 1 nM and the “Selectivity (X) FGFR1/FGFR3” value was “B (B represents 20 ≤ multiple X<50)”.
